Test results reported in patent US5413787A, “Bioparyl, a biological regulator, active against various pathologies” (priority 1988, dated 1995).

Experiments:
[1] = test system: RNases from human fibrosis skin; experiment: In vitro RNase activity of radiation-induced skin fibrosis extract (r-RNA degradation); type: biochemical; details: FIG. 7
Procedure: Sample of skin fibrosis induced by radiation has been broken in a mortar (4° C.) in the presence of Tris-HCl buffer 0.02M containing 0.06M KCl and 0.001M MgCl2. Final volume: 1.5 ml. The activity of RNases present in this extract has been tested with 4 S RNA and ribosomal RNA (r-RNA); 0.01; 0.02; 0.03 and 0.04 ml of enzyme extract were incubated in the presence of radioactive ^3 H-r-RNA or ^3 H-4 S RNA. Incubation time: 15 min. at 36° C. The results are illustrated in FIG. 7. Degradation of labelled RNA is linear in function of increasing concentration of the extract. r-RNA is more rapidly degraded than 4 S RNA. […] Ferric iron (FeCl3), at low concentrations, stimulates r-RNA degradation; but at higher concentrations it inhibits it.

[2] = test system: RNases in plasma of healthy persons; experiment: Effect of iron on in vitro activity of RNases of healthy persons; type: biochemical, human; details: FIG. 5
Procedure: (§1) Bioparyl dissolved in distilled water (pH 7.0, 5 mg/ml) is used (0.01 to 0.05 ml). Incubation medium (0.15 ml final volume) contains: Tris-HCl buffer, 10^-2 M pH 7.60: 0.05 ml; ^3 H-RNA (r-RNA or 4 S RNA), 100 μg, 15,000 CPM: 0.05 ml; ten-times diluted plasma: 0.01 to 0.05 ml. After incubation at 36° C. for 10 min. (water bath) (generally necessary conditions but that may vary in case of necessity), the reaction is stopped by addition of 3 ml trichloroacetic acid (TCA) (5%); the tubes are cooled in order to assure a good precipitation of proteins and undegraded ^3 H-RNA.
(§2) The precipitate is filtered on glass millipore (GF/C, Whatman), washed with 5% TCA solution then with 95° ethyl alcohol. The filters are dried and the radioactivity determined in a scintillation spectrometer. The results are expressed as percent of non-degraded radioactive RNA, the radioactivity of initial intact RNA being taken as 100%.
(§3) One knows that the RNases enable the furnishing of the RNA primers necessary for the replication of DNA, and that the primers accepted by DNA from healthy tissues are not the same as the primers required for replication of DNA from cancer tissues. Thus, regulation of RNases (enzymes able to provide primers in cells)is a capital phenomenon in carcinology and virology.

[3] = test system: RNases from patients affected by cancers, auto-immune diseases or viral pathologies; experiment: Effect of iron on in vitro activity of RNases from patients; type: biochemical, human; details: cancers (leukemia, solid cancers)
Procedure: as §1, §2, §3

## [Cl][Fe]([Cl])[Cl] [Ferric iron]
[1]; at higher concentrations
  r-RNA degradation by fibrosis skin RNases, FeCl3 higher concentrations: inhibits
[1]; at low concentrations
  r-RNA degradation by fibrosis skin RNases, FeCl3 low concentrations: stimulates
[2]
  in vitro activity of RNases of healthy persons under iron: without effect
[3]
  in vitro activity of RNases from patients under ferric iron: strongly accelerates
